According to PubChem BioAssay (NCI):
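Briefly, cells in 96-well plates were exposed to five compound concentrations for 48 h, and endpoints were estimated by linear interpolation. At the TGI there is no net growth.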

Tests used:
Assay in all cases: growth of human tumour cells (NCI), 48 h
LOX IMVI melanoma = test system: LOX IMVI melanoma
TK-10 renal = test system: TK-10 renal
CCRF-CEM leukemia = test system: CCRF-CEM leukemia
SK-MEL-5 melanoma = test system: SK-MEL-5 melanoma
MALME-3M melanoma = test system: MALME-3M melanoma
ACHN renal = test system: ACHN renal
SK-OV-3 ovarian = test system: SK-OV-3 ovarian
LXFL 529 NSCLC = test system: LXFL 529 NSCLC
NCI-H226 lung = test system: NCI-H226 lung
RXF 393 renal = test system: RXF 393 renal
COLO 205 colon = test system: COLO 205 colon
K-562 leukemia = test system: K-562 leukemia
NCI-H23 lung = test system: NCI-H23 lung
A498 renal = test system: A498 renal
UACC-257 melanoma = test system: UACC-257 melanoma
786-0 renal = test system: 786-0 renal
UACC-62 melanoma = test system: UACC-62 melanoma
HL-60(TB) leukemia = test system: HL-60(TB) leukemia
OVCAR-8 ovarian = test system: OVCAR-8 ovarian
HT29 colon = test system: HT29 colon
IGROV1 ovarian = test system: IGROV1 ovarian
SK-MEL-2 melanoma = test system: SK-MEL-2 melanoma
KM12 colon = test system: KM12 colon
SF-539 CNS = test system: SF-539 CNS
SNB-78 CNS = test system: SNB-78 CNS
MOLT-4 leukemia = test system: MOLT-4 leukemia
SF-295 CNS = test system: SF-295 CNS
UO-31 renal = test system: UO-31 renal
SF-268 CNS = test system: SF-268 CNS
KM20L2 colon = test system: KM20L2 colon
SW-620 colon = test system: SW-620 colon
HOP-62 NSCLC = test system: HOP-62 NSCLC
HCT-15 colon = test system: HCT-15 colon
OVCAR-5 ovarian = test system: OVCAR-5 ovarian
DLD-1 colon = test system: DLD-1 colon
EKVX NSCLC = test system: EKVX NSCLC
U251 CNS = test system: U251 CNS
HCT-116 colon = test system: HCT-116 colon
DMS 273 small cell lung = test system: DMS 273 small cell lung
M14 melanoma = test system: M14 melanoma
SNB-75 CNS = test system: SNB-75 CNS
NCI-H460 lung = test system: NCI-H460 lung
XF 498 CNS = test system: XF 498 CNS
HCC-2998 colon = test system: HCC-2998 colon
HOP-92 NSCLC = test system: HOP-92 NSCLC
OVCAR-3 ovarian = test system: OVCAR-3 ovarian
SN12C renal = test system: SN12C renal
SNB-19 CNS = test system: SNB-19 CNS
OVCAR-4 ovarian = test system: OVCAR-4 ovarian
A549 NSCLC = test system: A549 NSCLC
DMS 114 small cell lung = test system: DMS 114 small cell lung
SK-MEL-28 melanoma = test system: SK-MEL-28 melanoma
RPMI-8226 leukemia = test system: RPMI-8226 leukemia
M19-MEL melanoma = test system: M19-MEL melanoma
HOP-18 NSCLC = test system: HOP-18 NSCLC
NCI-H522 lung = test system: NCI-H522 lung

Measured: TGI

CC(=O)OC1=C2CC[C@@H]3C(CC[C@@]4(C)C3CC[C@@H]4OC(C)=O)[C@@]2(C)CC(C#N)C1=O (stereo partly specified)
59.4 µM: SK-MEL-2 melanoma | OVCAR-4 ovarian
49.4 µM: SK-MEL-5 melanoma
42.6 µM: HL-60(TB) leukemia
38.9 µM: UACC-62 melanoma
90.8 µM: SNB-78 CNS
48.1 µM: SK-OV-3 ovarian
43.5 µM: COLO 205 colon
53.1 µM: CCRF-CEM leukemia
51.3 µM: MOLT-4 leukemia
54.9 µM: HOP-92 NSCLC
61.4 µM: IGROV1 ovarian
74 µM: DMS 273 small cell lung
80.8 µM: XF 498 CNS
69.8 µM: DLD-1 colon
> 100 µM: LOX IMVI melanoma | TK-10 renal | MALME-3M melanoma | NCI-H226 lung | RXF 393 renal | NCI-H23 lung | UACC-257 melanoma | 786-0 renal | OVCAR-8 ovarian | HT29 colon | KM12 colon | SF-539 CNS | SF-295 CNS | UO-31 renal | SF-268 CNS | KM20L2 colon | SW-620 colon | HOP-62 NSCLC | HCT-15 colon | OVCAR-5 ovarian | EKVX NSCLC | HCT-116 colon | M14 melanoma | HCC-2998 colon | SN12C renal | SNB-19 CNS | A549 NSCLC | SK-MEL-28 melanoma
90.5 µM: U251 CNS
91.3 µM: LXFL 529 NSCLC
37.1 µM: DMS 114 small cell lung
88.1 µM: K-562 leukemia
74.4 µM: NCI-H460 lung
72.9 µM: SNB-75 CNS
46.9 µM: RPMI-8226 leukemia
9.59 µM: A498 renal
71 µM: ACHN renal
53.3 µM: OVCAR-3 ovarian

N#Cc1ccc(OCCSCCCCCCCCCCSCCOc2ccc(C#N)cc2)cc1
> 100 µM: LOX IMVI melanoma | TK-10 renal | CCRF-CEM leukemia | SK-MEL-5 melanoma | MALME-3M melanoma | ACHN renal | SK-OV-3 ovarian | LXFL 529 NSCLC | NCI-H226 lung | RXF 393 renal | COLO 205 colon | K-562 leukemia | NCI-H23 lung | A498 renal | UACC-257 melanoma | 786-0 renal | UACC-62 melanoma | HL-60(TB) leukemia | M19-MEL melanoma | OVCAR-8 ovarian | IGROV1 ovarian | SK-MEL-2 melanoma | KM12 colon | SF-539 CNS | SNB-78 CNS | MOLT-4 leukemia | SF-295 CNS | UO-31 renal | SF-268 CNS | KM20L2 colon | SW-620 colon | HOP-62 NSCLC | HCT-15 colon | HOP-18 NSCLC | NCI-H522 lung | OVCAR-5 ovarian | EKVX NSCLC | U251 CNS | M14 melanoma | SNB-75 CNS | NCI-H460 lung | HCC-2998 colon | OVCAR-3 ovarian | SN12C renal | A549 NSCLC | DMS 114 small cell lung | SK-MEL-28 melanoma | RPMI-8226 leukemia
